The source of these data is US12077503B2, “Substituted cyclic amides and their use as herbicides” (FMC CORPORATION, priority 2015, dated 2024).

Holding throughout (type): in vivo
In assay [1] the test system is Kochia (Kochia scoparia). The assay is described as follows: Test A preemergence. The following applies: Bassia scoparia, pre-emergence, 240 h; for pest or weed control at 125 g/ha: 125 g ai/ha, preemergence, visual rating after approx. 10 d, 0 to 100 scale where 0 is no effect and 100 is complete control, read-out: Plant response rating, Kochia; for pest or weed control at 500 g/ha: 500 g ai/ha, Preemergence, visual injury vs untreated controls after approximately 10 d, read-out: Kochia plant response rating (0 to 100 scale where 0 is no effect and 100 is complete control). The essentials: (§1)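 Ratings of 0 (no effect) to 100 (complete control) come from visual comparison with untreated controls roughly 10 d after treatment. Test chemicals, formulated in a non-phytotoxic solvent mixture with surfactant, were applied either as a preemergence directed soil spray on seeded soil or postemergence to one- to two-leaf plants 2 to 10 cm tall.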

Assay [2] relates to barnyardgrass (Echinochloa crus-galli). Description: Test A preemergence. The following applies: Echinochloa crus-galli, pre-emergence, 240 h; for pest or weed control at 125 g/ha: 125 g ai/ha, preemergence, visual rating after approx. 10 d, 0 to 100 scale where 0 is no effect and 100 is complete control, read-out: Plant response rating, Barnyardgrass; for pest or weed control at 500 g/ha: 500 g ai/ha, Preemergence, visual injury vs untreated controls after approximately 10 d, read-out: Barnyardgrass plant response rating (0 to 100 scale where 0 is no effect and 100 is complete control). The essentials:
as §1

For assay [3], the system named is giant foxtail (Setaria faberii). The assay is described as follows: Test A preemergence. The following applies: Setaria faberi, pre-emergence, 240 h; for pest or weed control at 125 g/ha: 125 g ai/ha, preemergence, visual rating after approx. 10 d, 0 to 100 scale where 0 is no effect and 100 is complete control, read-out: Plant response rating, Foxtail, Giant; for pest or weed control at 500 g/ha: 500 g ai/ha, Preemergence, visual injury vs untreated controls after approximately 10 d, read-out: Foxtail, Giant plant response rating (0 to 100 scale where 0 is no effect and 100 is complete control). The gist of the method:
as §1

The subject of assay [4] is pigweed (Amaranthus retroflexus). The assay is described as follows: Test A preemergence. To be noted: Amaranthus retroflexus, pre-emergence, 240 h; for pest or weed control at 125 g/ha: 125 g ai/ha, preemergence, visual rating after approx. 10 d, 0 to 100 scale where 0 is no effect and 100 is complete control, read-out: Plant response rating, Pigweed; for pest or weed control at 500 g/ha: 500 g ai/ha, Preemergence, visual injury vs untreated controls after approximately 10 d, read-out: Pigweed plant response rating (0 to 100 scale where 0 is no effect and 100 is complete control).

Assay [5] concerns ragweed (common ragweed, Ambrosia elatior). Description: Test A preemergence. To be noted: Ambrosia artemisiifolia, pre-emergence, 240 h; for pest or weed control at 125 g/ha: 125 g ai/ha, preemergence, visual rating after approx. 10 d, 0 to 100 scale where 0 is no effect and 100 is complete control, read-out: Plant response rating, Ragweed; for pest or weed control at 500 g/ha: 500 g ai/ha, Preemergence, visual injury vs untreated controls after approximately 10 d, read-out: Ragweed plant response rating (0 to 100 scale where 0 is no effect and 100 is complete control). The essentials: as §1

The test system of assay [6] is ryegrass, Italian (Italian ryegrass, Lolium multiflorum). The assay is described as follows: Test A preemergence. To be noted: Lolium multiflorum, pre-emergence, 240 h; for pest or weed control at 125 g/ha: 125 g ai/ha, preemergence, visual rating after approx. 10 d, 0 to 100 scale where 0 is no effect and 100 is complete control, read-out: Plant response rating, Ryegrass, Italian; for pest or weed control at 500 g/ha: 500 g ai/ha, Preemergence, visual injury vs untreated controls after approximately 10 d, read-out: Ryegrass, Italian plant response rating (0 to 100 scale where 0 is no effect and 100 is complete control). The essentials:
as §1

In assay [7] the test system is Galium (catchweed bedstraw, Galium aparine). The assay is described as follows: Test A postemergence. To be noted: Galium, post-emergence, 240 h, 125 g ai/ha, postemergence; visual injury after approximately 10 d; 0 to 100 scale (0 no effect, 100 complete control); read-out: Plant response rating, Galium. The essentials:
as §1

In assay [8] the test system is Kochia (Kochia scoparia). Description: Test A postemergence. To be noted: Bassia scoparia, post-emergence, 240 h, 125 g ai/ha, postemergence; visual injury after approximately 10 d; 0 to 100 scale (0 no effect, 100 complete control); read-out: Plant response rating, Kochia. The gist of the method:
as §1

Assay [9] concerns barnyardgrass (Echinochloa crus-galli). The assay is described as follows: Test A postemergence. The following applies: Echinochloa crus-galli, post-emergence, 240 h, 125 g ai/ha, postemergence; visual injury after approximately 10 d; 0 to 100 scale (0 no effect, 100 complete control); read-out: Plant response rating, Barnyardgrass. The essentials: as §1
Assay [10] deals with blackgrass (Alopecurus myosuroides). Description: Test A postemergence. The following applies: Alopecurus myosuroides, post-emergence, 240 h, 125 g ai/ha, postemergence; visual injury after approximately 10 d; 0 to 100 scale (0 no effect, 100 complete control); read-out: Plant response rating, Blackgrass. The essentials: as §1
For the next assay, the system named is corn (Zea mays). The assay is described as follows: Test A postemergence. The following applies: Zea mays, post-emergence, 240 h, 125 g ai/ha, postemergence; visual injury after approximately 10 d; 0 to 100 scale (0 no effect, 100 complete control). The essentials:
as §1

In assay [11] the test system is giant foxtail (Setaria faberii). Description: Test A postemergence. The following applies: Setaria faberi, post-emergence, 240 h, 125 g ai/ha, postemergence; visual injury after approximately 10 d; 0 to 100 scale (0 no effect, 100 complete control); read-out: Plant response rating, Foxtail, Giant. The gist of the method:
as §1

Assay [12] relates to pigweed (Amaranthus retroflexus). Description: Test A postemergence. To be noted: Amaranthus retroflexus, post-emergence, 240 h, 125 g ai/ha, postemergence; visual injury after approximately 10 d; 0 to 100 scale (0 no effect, 100 complete control); read-out: Plant response rating, Pigweed. The essentials:
as §1

Assay [13] deals with ragweed (common ragweed, Ambrosia elatior). The assay is described as follows: Test A postemergence. The following applies: Ambrosia artemisiifolia, post-emergence, 240 h, 125 g ai/ha, postemergence; visual injury after approximately 10 d; 0 to 100 scale (0 no effect, 100 complete control); read-out: Plant response rating, Ragweed. The gist of the method:
as §1

Assay [14] relates to ryegrass, Italian (Italian ryegrass, Lolium multiflorum). Description: Test A postemergence. To be noted: Lolium multiflorum, post-emergence, 240 h, 125 g ai/ha, postemergence; visual injury after approximately 10 d; 0 to 100 scale (0 no effect, 100 complete control); read-out: Plant response rating, Ryegrass, Italian. The gist of the method:
as §1

As to `CN1C[C@H](c2nccs2)[C@@H](C(=O)Nc2cccc(F)c2F)C1=O` [Compound 774], the pest or weed control at 125 g/ha (in the assay with Kochia (Kochia scoparia) [1]; in assay [2]; in assay [3]; in assay [4]; in [5]; in assay [6]) was 0% in each case. Also, the pest or weed control at 125 g/ha (in assay [7]; in the assay with Kochia (Kochia scoparia) [8]; in [9]; in assay [10]; in assay [11]; in [12]) was 0% throughout. The pest or weed control at 125 g/ha in [13] and in [14] was 0% each time. The pest or weed control at 500 g/ha (in the assay with Kochia (Kochia scoparia) [1]; in [2]; in assay [3]; in assay [4]; in [5]; in [6]) was 0% throughout. Also, the Corn plant response rating (crop injury, 0 = no effect, 100 = complete kill) at 125 g/ha with corn (Zea mays) came to 0%.
As for `O=C1NC[C@H](c2ccc3c(c2)CCO3)[C@H]1C(=O)Nc1ccccc1F` [Compound 786], the pest or weed control at 125 g/ha is 0% with Kochia (Kochia scoparia) [1]; 80% in assay [2]; 90% in assay [3]; 0% in assay [4]; 0% in assay [5]; 0% in [6]. Besides, the pest or weed control at 125 g/ha was found to be 10% in assay [7]; 0% in the assay on Kochia (Kochia scoparia) [8]; 80% in assay [9]; 0% in assay [10]; 40% in assay [11]; 0% in [12]. The pest or weed control at 125 g/ha in [13] and in assay [14] was 0% throughout. Besides, the pest or weed control at 500 g/ha in the assay with Kochia (Kochia scoparia) [1] turned out to be 0%; in assay [2] it was 90%; in assay [3], 90%; in assay [4] it was 0%; in assay [5], 0%; in assay [6] it was 0%. Moreover, the Corn plant response rating (crop injury, 0 = no effect, 100 = complete kill) at 125 g/ha in the assay on corn (Zea mays) amounted to 0%.
`CN1C[C@H](c2ccc(OC(F)F)cc2)[C@@H](C(=O)Nc2ccccc2S(C)(=O)=O)C1=O` [Compound 788]: the pest or weed control at 125 g/ha was determined as 80% in the assay with Kochia (Kochia scoparia) [1]; 90% in [2]; 90% in assay [3]; 80% in assay [4]; 80% in assay [5]; 0% in assay [6]. For the same compound, the pest or weed control at 125 g/ha in [7] was 50%; in the assay on Kochia (Kochia scoparia) [8], 40%; in [9] it was 80%; in assay [10], 20%; in assay [11] it was 70%; in assay [12], 60%. The pest or weed control at 125 g/ha worked out at 40% in assay [13] and 20% in [14]. Moreover, the pest or weed control at 500 g/ha worked out at 80% in the assay on Kochia (Kochia scoparia) [1]; 90% in assay [2]; 100% in assay [3]; 90% in assay [4]; 90% in assay [5]; 40% in [6]. In the assay with corn (Zea mays), this compound displayed a Corn plant response rating (crop injury, 0 = no effect, 100 = complete kill) at 125 g/ha of 20%.
